Reference: patent EP0327492A1, “Herbicidally and plantgrowth regulatory active quinoline and pyrindine compounds” (CIBA-GEIGY AG, priority 1988, dated 1989)

What was measured:
Format in all cases: in vivo
Alopecurus myos. [1] = assay: Post-emergent herbicidal action, contact herbicide (B.3); settings: 500 bis 2000 [g/ha], 15 days after treatment
Procedure: (§1) Im Gewächshaus wird unmittelbar nach der Einsaat der Versuchspflanzen in Saatschalen die Erdoberfläche mit einer wässrigen Dispersion der Wirkstoffe, erhalten aus einem 25 %igen Emulsionskonzentrat behandelt. Es werden Konzentrationen von 2000-500 g Wirksubstanz/Hektar angewendet. Die Saatschalen werden im Gewächshaus bei 22-25° C und 50-70 % relativer Luftfeuchtigkeit gehalten und der Versuch nach 3 Wochen ausgewertet und die Resultate nach folgender Notenskala ausgewertet. • 1 Pflanze hat nicht gekeimt oder ist eingegangen • 2-3 sehr starke Schäden • 4 starke Schäden • 5 mittlere Schäden, die Pflanzen sind verkümmert • 6 Schäden, die Pflanze kann regenerieren • 7-8 leichte Schäden • 9 normales Wachstum, wie das unbehandelter Pflanzen
(§2) Boniturnoten von 1 bis 4 (insbesondere von 1 bis 3) weisen auf eine gute bis sehr gute Herbizidwirkung hin. Boniturnoten von 6 bis 9 (insbesondere 7 bis 9) weisen auf eine gute Toleranz (insbesondere bei Kulturpflanzen) hin.
(§3) Eine Anzahl Unkräuter, sowohl monokotyle wie dikotyle, werden nach dem Auflaufen (im 4- bis 6-Blattstadium) mit einer wässrigen Wirkstoffdispersion in einer Dosierung von 2000-500 g Wirksubstanz pro Hektar auf die Pflanzen gespritzt und diese bei 24°-26°C und 45-60 % relativer Luftfeuchtigkeit gehalten. 15 Tage nach der Behandlung wird der Versuch nach dem in Beispiel B.2. gegebenen Massstab bewertet.

Stellaria [2] = assay: as above; settings: 500 bis 2000 [g/ha], 15 days after treatment
Procedure: as §1, §2, §3

Lolium perenne [3] = assay: as above; settings: 500 bis 2000 [g/ha], 15 days after treatment
Procedure: as §1, §2, §3

Veronica Sp. [4] = assay: as above; settings: 500 bis 2000 [g/ha], 15 days after treatment
Procedure: as §1, §2, §3

Bromus tectorum [5] = assay: as above; settings: 500 bis 2000 [g/ha], 15 days after treatment
Procedure: as §1, §2, §3

Xanthium Sp. = assay: as above; settings: 500 bis 2000 [g/ha], 15 days after treatment
Procedure: as §1, §2, §3

Sorghum halep. [6] = assay: as above; settings: 500 bis 2000 [g/ha], 15 days after treatment
Procedure: as §1, §2, §3

Echinochloa crus galli [7] = assay: as above; settings: 500 bis 2000 [g/ha], 15 days after treatment
Procedure: as §1, §2, §3

Galium aparine [8] = assay: as above; settings: 500 bis 2000 [g/ha], 15 days after treatment
Procedure: as §1, §2, §3

Digitaria sang. [9] = assay: as above; settings: 500 bis 2000 [g/ha], 15 days after treatment
Procedure: as §1, §2, §3

Amaranthus ret. [10] = assay: as above; settings: 500 bis 2000 [g/ha], 15 days after treatment
Procedure: as §1, §2, §3

Sinapis [11] = assay: as above; settings: 500 bis 2000 [g/ha], 15 days after treatment
Procedure: as §1, §2, §3

Abutilon [12] = assay: as above; settings: 500 bis 2000 [g/ha], 15 days after treatment
Procedure: as §1, §2, §3

Chenopodium Sp. [13] = assay: as above; settings: 500 bis 2000 [g/ha], 15 days after treatment
Procedure: as §1, §2, §3

Avena fatua [14] = assay: as above; settings: 500 bis 2000 [g/ha], 15 days after treatment
Procedure: as §1, §2, §3

Solanum nigrum [15] = assay: as above; settings: 500 bis 2000 [g/ha], 15 days after treatment
Procedure: as §1, §2, §3

Chrysanthe. leuc. [16] = assay: as above; settings: 500 bis 2000 [g/ha], 15 days after treatment
Procedure: as §1, §2, §3

Alopecurus myos. [17] = assay: Pre-emergent herbicidal action (B.2); settings: 500 bis 2000 [g/ha], evaluated after 3 weeks
Procedure: as §1, §2

Stellaria [18] = assay: Pre-emergent herbicidal action (B.2); settings: 500 bis 2000 [g/ha], evaluated after 3 weeks
Procedure: as §1, §2

Lolium perenne [19] = assay: Pre-emergent herbicidal action (B.2); settings: 500 bis 2000 [g/ha], evaluated after 3 weeks
Procedure: as §1, §2

Veronica Sp. [20] = assay: Pre-emergent herbicidal action (B.2); settings: 500 bis 2000 [g/ha], evaluated after 3 weeks
Procedure: as §1, §2

Bromus tectorum [21] = assay: Pre-emergent herbicidal action (B.2); settings: 500 bis 2000 [g/ha], evaluated after 3 weeks
Procedure: as §1, §2

Sorghum halep. [22] = assay: Pre-emergent herbicidal action (B.2); settings: 500 bis 2000 [g/ha], evaluated after 3 weeks
Procedure: as §1, §2

Echinochloa crus galli [23] = assay: Pre-emergent herbicidal action (B.2); settings: 500 bis 2000 [g/ha], evaluated after 3 weeks
Procedure: as §1, §2

Galium aparine [24] = assay: Pre-emergent herbicidal action (B.2); settings: 500 bis 2000 [g/ha], evaluated after 3 weeks
Procedure: as §1, §2

Digitaria sang. [25] = assay: Pre-emergent herbicidal action (B.2); settings: 500 bis 2000 [g/ha], evaluated after 3 weeks
Procedure: as §1, §2

Amaranthus ret. [26] = assay: Pre-emergent herbicidal action (B.2); settings: 500 bis 2000 [g/ha], evaluated after 3 weeks
Procedure: as §1, §2

Sinapis [27] = assay: Pre-emergent herbicidal action (B.2); settings: 500 bis 2000 [g/ha], evaluated after 3 weeks
Procedure: as §1, §2

Abutilon [28] = assay: Pre-emergent herbicidal action (B.2); settings: 500 bis 2000 [g/ha], evaluated after 3 weeks
Procedure: as §1, §2

Chenopodium Sp. [29] = assay: Pre-emergent herbicidal action (B.2); settings: 500 bis 2000 [g/ha], evaluated after 3 weeks
Procedure: as §1, §2

Ipomoea = assay: Pre-emergent herbicidal action (B.2); settings: 500 bis 2000 [g/ha], evaluated after 3 weeks
Procedure: as §1, §2

Avena fatua [30] = assay: Pre-emergent herbicidal action (B.2); settings: 500 bis 2000 [g/ha], evaluated after 3 weeks
Procedure: as §1, §2

Solanum nigrum [31] = assay: Pre-emergent herbicidal action (B.2); settings: 500 bis 2000 [g/ha], evaluated after 3 weeks
Procedure: as §1, §2

Chrysanthe. leuc. [32] = assay: Pre-emergent herbicidal action (B.2); settings: 500 bis 2000 [g/ha], evaluated after 3 weeks
Procedure: as §1, §2

## CC1CCc2nc3c(cc2C1)C(=O)N1C(=O)C(C)(C(C)C)N=C31 (stereo not shown) [Verbindung 3.01, 2,8-Dimethyl-2-isopropyl-7,8,9,10-tetrahydro-3H,5H-imidazo[1',2':1,2]pyrrolo[3,4-b]chinolin-3,5-dion]
Alopecurus myos. [1]
  Herbizidwirkung: gute bis sehr gute Herbizidwirkung (Boniturnoten von 1 bis 4 (insbesondere von 1 bis 3) weisen auf eine gute bis sehr gute Herbizidwirkung hin)
Stellaria [2]
  Herbizidwirkung: gute bis sehr gute Herbizidwirkung (Boniturnoten von 1 bis 4 (insbesondere von 1 bis 3) weisen auf eine gute bis sehr gute Herbizidwirkung hin)
Lolium perenne [3]
  Herbizidwirkung: gute bis sehr gute Herbizidwirkung (Boniturnoten von 1 bis 4 (insbesondere von 1 bis 3) weisen auf eine gute bis sehr gute Herbizidwirkung hin)
Veronica Sp. [4]
  Herbizidwirkung: gute bis sehr gute Herbizidwirkung (Boniturnoten von 1 bis 4 (insbesondere von 1 bis 3) weisen auf eine gute bis sehr gute Herbizidwirkung hin)
Bromus tectorum [5]
  Herbizidwirkung: gute bis sehr gute Herbizidwirkung (Boniturnoten von 1 bis 4 (insbesondere von 1 bis 3) weisen auf eine gute bis sehr gute Herbizidwirkung hin)
Xanthium Sp.
  Herbizidwirkung: gute bis sehr gute Herbizidwirkung (Boniturnoten von 1 bis 4 (insbesondere von 1 bis 3) weisen auf eine gute bis sehr gute Herbizidwirkung hin)
Sorghum halep. [6]
  Herbizidwirkung: gute bis sehr gute Herbizidwirkung (Boniturnoten von 1 bis 4 (insbesondere von 1 bis 3) weisen auf eine gute bis sehr gute Herbizidwirkung hin)
Echinochloa crus galli [7]
  Herbizidwirkung: gute bis sehr gute Herbizidwirkung (Boniturnoten von 1 bis 4 (insbesondere von 1 bis 3) weisen auf eine gute bis sehr gute Herbizidwirkung hin)
Galium aparine [8]
  Herbizidwirkung: gute bis sehr gute Herbizidwirkung (Boniturnoten von 1 bis 4 (insbesondere von 1 bis 3) weisen auf eine gute bis sehr gute Herbizidwirkung hin)
Digitaria sang. [9]
  Herbizidwirkung: gute bis sehr gute Herbizidwirkung (Boniturnoten von 1 bis 4 (insbesondere von 1 bis 3) weisen auf eine gute bis sehr gute Herbizidwirkung hin)
Amaranthus ret. [10]
  Herbizidwirkung: gute bis sehr gute Herbizidwirkung (Boniturnoten von 1 bis 4 (insbesondere von 1 bis 3) weisen auf eine gute bis sehr gute Herbizidwirkung hin)
Sinapis [11]
  Herbizidwirkung: gute bis sehr gute Herbizidwirkung (Boniturnoten von 1 bis 4 (insbesondere von 1 bis 3) weisen auf eine gute bis sehr gute Herbizidwirkung hin)
Abutilon [12]
  Herbizidwirkung: gute bis sehr gute Herbizidwirkung (Boniturnoten von 1 bis 4 (insbesondere von 1 bis 3) weisen auf eine gute bis sehr gute Herbizidwirkung hin)
Chenopodium Sp. [13]
  Herbizidwirkung: gute bis sehr gute Herbizidwirkung (Boniturnoten von 1 bis 4 (insbesondere von 1 bis 3) weisen auf eine gute bis sehr gute Herbizidwirkung hin)
Avena fatua [14]
  Herbizidwirkung: gute bis sehr gute Herbizidwirkung (Boniturnoten von 1 bis 4 (insbesondere von 1 bis 3) weisen auf eine gute bis sehr gute Herbizidwirkung hin)
Solanum nigrum [15]
  Herbizidwirkung: gute bis sehr gute Herbizidwirkung (Boniturnoten von 1 bis 4 (insbesondere von 1 bis 3) weisen auf eine gute bis sehr gute Herbizidwirkung hin)
Chrysanthe. leuc. [16]
  Herbizidwirkung: gute bis sehr gute Herbizidwirkung (Boniturnoten von 1 bis 4 (insbesondere von 1 bis 3) weisen auf eine gute bis sehr gute Herbizidwirkung hin)
Alopecurus myos. [17]
  Herbizidwirkung: gute bis sehr gute Herbizidwirkung (Boniturnoten von 1 bis 4 (insbesondere von 1 bis 3) weisen auf eine gute bis sehr gute Herbizidwirkung hin)
Stellaria [18]
  Herbizidwirkung: gute bis sehr gute Herbizidwirkung (Boniturnoten von 1 bis 4 (insbesondere von 1 bis 3) weisen auf eine gute bis sehr gute Herbizidwirkung hin)
Lolium perenne [19]
  Herbizidwirkung: gute bis sehr gute Herbizidwirkung (Boniturnoten von 1 bis 4 (insbesondere von 1 bis 3) weisen auf eine gute bis sehr gute Herbizidwirkung hin)
Veronica Sp. [20]
  Herbizidwirkung: gute bis sehr gute Herbizidwirkung (Boniturnoten von 1 bis 4 (insbesondere von 1 bis 3) weisen auf eine gute bis sehr gute Herbizidwirkung hin)
Bromus tectorum [21]
  Herbizidwirkung: gute bis sehr gute Herbizidwirkung (Boniturnoten von 1 bis 4 (insbesondere von 1 bis 3) weisen auf eine gute bis sehr gute Herbizidwirkung hin)
Sorghum halep. [22]
  Herbizidwirkung: gute bis sehr gute Herbizidwirkung (Boniturnoten von 1 bis 4 (insbesondere von 1 bis 3) weisen auf eine gute bis sehr gute Herbizidwirkung hin)
Echinochloa crus galli [23]
  Herbizidwirkung: gute bis sehr gute Herbizidwirkung (Boniturnoten von 1 bis 4 (insbesondere von 1 bis 3) weisen auf eine gute bis sehr gute Herbizidwirkung hin)
Galium aparine [24]
  Herbizidwirkung: gute bis sehr gute Herbizidwirkung (Boniturnoten von 1 bis 4 (insbesondere von 1 bis 3) weisen auf eine gute bis sehr gute Herbizidwirkung hin)
Digitaria sang. [25]
  Herbizidwirkung: gute bis sehr gute Herbizidwirkung (Boniturnoten von 1 bis 4 (insbesondere von 1 bis 3) weisen auf eine gute bis sehr gute Herbizidwirkung hin)
Amaranthus ret. [26]
  Herbizidwirkung: gute bis sehr gute Herbizidwirkung (Boniturnoten von 1 bis 4 (insbesondere von 1 bis 3) weisen auf eine gute bis sehr gute Herbizidwirkung hin)
Sinapis [27]
  Herbizidwirkung: gute bis sehr gute Herbizidwirkung (Boniturnoten von 1 bis 4 (insbesondere von 1 bis 3) weisen auf eine gute bis sehr gute Herbizidwirkung hin)
Abutilon [28]
  Herbizidwirkung: gute bis sehr gute Herbizidwirkung (Boniturnoten von 1 bis 4 (insbesondere von 1 bis 3) weisen auf eine gute bis sehr gute Herbizidwirkung hin)
Chenopodium Sp. [29]
  Herbizidwirkung: gute bis sehr gute Herbizidwirkung (Boniturnoten von 1 bis 4 (insbesondere von 1 bis 3) weisen auf eine gute bis sehr gute Herbizidwirkung hin)
Ipomoea
  Herbizidwirkung: gute bis sehr gute Herbizidwirkung (Boniturnoten von 1 bis 4 (insbesondere von 1 bis 3) weisen auf eine gute bis sehr gute Herbizidwirkung hin)
Avena fatua [30]
  Herbizidwirkung: gute bis sehr gute Herbizidwirkung (Boniturnoten von 1 bis 4 (insbesondere von 1 bis 3) weisen auf eine gute bis sehr gute Herbizidwirkung hin)
Solanum nigrum [31]
  Herbizidwirkung: gute bis sehr gute Herbizidwirkung (Boniturnoten von 1 bis 4 (insbesondere von 1 bis 3) weisen auf eine gute bis sehr gute Herbizidwirkung hin)
Chrysanthe. leuc. [32]
  Herbizidwirkung: gute bis sehr gute Herbizidwirkung (Boniturnoten von 1 bis 4 (insbesondere von 1 bis 3) weisen auf eine gute bis sehr gute Herbizidwirkung hin)
